A word on the inhibition: it is the share of the control response that was lost under treatment. A low value points to a weak effect. Broadly, the inhibition in vivo is the change of the read-out against control, counted positive when it falls. What is called IC50 is the concentration that gives 50% inhibition. The ED50 is the dose at which the effect has come halfway, by size or by number of responders. A lower ED50 goes with greater potency.

Here are results for nine compounds from ChEMBL document CHEMBL1128120, “Phosphorous acid analogs of L-680,833, a potent monocyclic -lactam inhibitor of human leukocyte elastase” (Bioorg Med Chem Lett, 1995).

Experiment [1] deals with T1, Neutrophil elastase (Homo sapiens) (UniProt P08246).
T1 sequence (whole entry): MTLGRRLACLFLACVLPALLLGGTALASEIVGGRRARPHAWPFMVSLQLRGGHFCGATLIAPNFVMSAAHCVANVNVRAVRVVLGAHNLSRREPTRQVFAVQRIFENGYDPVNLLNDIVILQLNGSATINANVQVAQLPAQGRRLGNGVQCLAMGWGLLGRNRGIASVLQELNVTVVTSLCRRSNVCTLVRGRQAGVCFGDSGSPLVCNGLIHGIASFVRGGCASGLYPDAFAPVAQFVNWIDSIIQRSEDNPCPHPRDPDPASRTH
Description: (§1) In vitro inhibition of Human Leukocyte Elastase enzyme in whole blood stimulated with A-23187 (at dose 3 uM). Format: functional, tissue-based.

The target of experiment [2] is T1, Neutrophil elastase (Homo sapiens). The experiment in a line: Compound was tested for inhibition of Human Leukocyte Elastase enzyme, expressed in term of bimolecular rate constant (Kinact/Ki).
For experiment [3], the system named is Cricetinae gen. sp. Description: In vivo inhibition in HLE-induced hamster lung hemorrhage when given orally at 10 mg/kg, 2 hr before challenge by HLE. Format: functional. The following applies: route oral.
Experiment [4] deals with T2, Neutrophil elastase (Homo sapiens, UniProt P08246).
T2 sequence (P08246 whole entry): T1 sequence (whole entry)
The experiment is described as §1. Format: functional, tissue-based.

The test system of experiment [5] is Cricetinae gen. sp. Description: Effective dose required to in vivo inhibition in HLE-induced hamster lung hemorrhage when given orally 5 hr before the enzyme. Format: functional. The note with it: po.

`CCC[C@@H](NC(=O)N1C(=O)C(CC)(CC)[C@@H]1Oc1ccc(CP(=O)(O)c2ccccc2)cc1)c1ccc(C)cc1` gave an inhibition in experiment [1] of 34%. In addition, the Ratio in experiment [2] came to 1.17e+06 M⁻¹ s⁻¹. For the same compound, the inhibition in vivo at 10 mg/kg in experiment [3] worked out at 27%.

In turn, `CCC[C@@H](NC(=O)N1C(=O)C(CC)(CC)[C@@H]1Oc1ccc(CC(=O)O)cc1)c1ccc(C)cc1` displayed an IC50 in experiment [4] of 9 µM. It took a dose of 1.5 mg/kg to reach the 50% effect level in experiment [5] (ED50). In addition, the Ratio in experiment [2] was determined as 622000 M⁻¹ s⁻¹.

As to `CCC[C@@H](NC(=O)N1C(=O)C(CC)(CC)[C@@H]1Oc1ccc(CP(=O)(OCC)OCC)cc1)c1ccc(C)cc1`, the inhibition in experiment [1] is 63%. Also, in experiment [2], the Ratio amounted to 1.16e+06 M⁻¹ s⁻¹. Besides, the inhibition in vivo at 10 mg/kg in experiment [3] was 15%.

On to `C=CCP(=O)(O)Cc1ccc(O[C@@H]2N(C(=O)N[C@H](CCC)c3ccc(C)cc3)C(=O)C2(CC)CC)cc1`, for which, in experiment [1], the inhibition came to 48%. Moreover, in experiment [2], the Ratio was determined as 740000 M⁻¹ s⁻¹. The inhibition in vivo at 10 mg/kg in experiment [3] was found to be 19%.

`C=CCP(=O)(Cc1ccc(O[C@@H]2N(C(=O)N[C@H](CCC)c3ccc(C)cc3)C(=O)C2(CC)CC)cc1)OCC` (stereo not given in full) displayed an inhibition in experiment [1] of 51%. In experiment [2], the Ratio is 1.33e+06 M⁻¹ s⁻¹. Further, the inhibition in vivo at 10 mg/kg in experiment [3] was found to be 64%.

On to `CCC[C@@H](NC(=O)N1C(=O)C(CC)(CC)[C@@H]1Oc1ccc(CP(=O)(CCC)OC(OC(=O)CC)C(C)C)cc1)c1ccc(C)cc1` (stereo not given in full), for which the Ratio in experiment [2] is 1.05e+06 M⁻¹ s⁻¹.

In experiment [1], `CCC[C@@H](NC(=O)N1C(=O)C(CC)(CC)[C@@H]1Oc1ccc(CP(=O)(O)O)cc1)c1ccc(C)cc1` had an inhibition of 61%. In experiment [2], the Ratio came out at 217000 M⁻¹ s⁻¹. The inhibition in vivo at 10 mg/kg in experiment [3] came out at 17%.

Take `CCC[C@@H](NC(=O)N1C(=O)C(CC)(CC)[C@@H]1Oc1ccc(CP(=O)(O)CCC)cc1)c1ccc(C)cc1`: the inhibition in experiment [1] came out at 50%. In addition, the Ratio in experiment [2] is 906000 M⁻¹ s⁻¹. Also, the inhibition in vivo at 10 mg/kg in experiment [3] worked out at 15%.

`CCC[C@@H](NC(=O)N1C(=O)C(CC)(CC)[C@@H]1Oc1ccc(CP(C)(=O)O)cc1)c1ccc(C)cc1`: the inhibition in experiment [1] is 55%. Also, the Ratio in experiment [2] came to 417000 M⁻¹ s⁻¹. Moreover, the inhibition in vivo at 10 mg/kg in experiment [3] is -59%.
